Organism: Rattus norvegicus
Test: Open TG-GATES - Regimen: Daily Repeat
Format: toxicity, organism-based, Sprague-Dawley
Design: regimen Daily Repeat, gender Male, age 6 weeks
Details: in vivo, po, 0 mg/kg, […], route gavage, dose level Control; for KIDNEY_L / KIDNEY_R / KIDNEY_TOTAL: tissue Kidney; for LIVER: tissue Liver; for A/G / ALP / ALT / AST / BUN / CRE / Ca / Cl / DBIL / GLC / IP / K / LDH / Na / PL / RALB / TBIL / TC / TG / TP / gamma-GTP: tissue Plasma

## CCCCNC(=O)NS(=O)(=O)c1ccc(C)cc1 [TOLBUTAMIDE]
Tissue Blood, time 28 day
  Lym: 80.2%
  MCH: 19.4 pg
  MCHC: 33.4%
  MCV: 58 fL
  Mono: 2%
  Neu: 16%
  PT: 13.6 s
  Plat: 107.1 x10_4/uL
  RBC: 813.4 x10_4/ul
  Ret: 2.3%
  WBC: 117.4 x10_2/uL
Time 7 day
  KIDNEY_L: 1.1 g
  KIDNEY_R: 1.1 g
  KIDNEY_TOTAL: 2.2 g
  LIVER: 12.8 g
  A/G: 0.9
  ALP: 1890.2 IU/L
  ALT: 43.2 IU/L
  AST: 69.2 IU/L
  BUN: 18.2 mg/dL
  CRE: 0.2 mg/dL
  Ca: 10.9 mg/dL
  Cl: 103.8 meq/L
  DBIL: 0.012 mg/dL
  GLC: 189.4 mg/dL
  IP: 8.1 mg/dL
  K: 4.1 meq/L
  LDH: 64.8 IU/L
  Na: 142.2 meq/L
  PL: 148.8 mg/dL
  RALB: 2.6 g/dL
  TBIL: 0.062 mg/dL
  TC: 67.2 mg/dL
  TG: 139.8 mg/dL
  TP: 5.6 g/dL
  gamma-GTP: 0.8 IU/L
Time 14 day
  KIDNEY_L: 1.2 g
  KIDNEY_R: 1.3 g
  KIDNEY_TOTAL: 2.5 g
  LIVER: 15.3 g
  A/G: 0.8
  ALP: 1297.4 IU/L
  ALT: 37 IU/L
  AST: 66.4 IU/L
  BUN: 16.6 mg/dL
  CRE: 0.2 mg/dL
  Ca: 11 mg/dL
  Cl: 104.2 meq/L
  DBIL: 0.012 mg/dL
  GLC: 185.6 mg/dL
  IP: 7.1 mg/dL
  K: 3.9 meq/L
  LDH: 58.8 IU/L
  Na: 142.6 meq/L
  PL: 149 mg/dL
  RALB: 2.7 g/dL
  TBIL: 0.056 mg/dL
  TC: 72.8 mg/dL
  TG: 131.2 mg/dL
  TP: 5.8 g/dL
  gamma-GTP: 1 IU/L
Time 28 day
  KIDNEY_L: 1.5 g
  KIDNEY_R: 1.5 g
  KIDNEY_TOTAL: 2.9 g
  LIVER: 15.9 g
  A/G: 0.8
  ALP: 1151.4 IU/L
  ALT: 40.6 IU/L
  AST: 62 IU/L
  BUN: 17 mg/dL
  CRE: 0.3 mg/dL
  Ca: 10.8 mg/dL
  Cl: 105.2 meq/L
  DBIL: 0.014 mg/dL
  GLC: 186.6 mg/dL
  IP: 6.7 mg/dL
  K: 4 meq/L
  LDH: 52 IU/L
  Na: 143.2 meq/L
  PL: 162.4 mg/dL
  RALB: 2.8 g/dL
  TBIL: 0.062 mg/dL
  TC: 78 mg/dL
  TG: 170 mg/dL
  TP: 6.3 g/dL
  gamma-GTP: 1.2 IU/L
